According to ChEMBL document CHEMBL4800722, “Data for DCP probe BI 605906” (2021):

What was measured:
[1] = target: Protein kinase C eta type (Homo sapiens) (UniProt P24723); conditions: Compound concentration 1.0 uM
[2] = target: Serine/threonine-protein kinase N2 (Homo sapiens) (UniProt Q16513); assay: PKN2 Invitrogen Lab (UK) kinase screen (BI); conditions: Compound concentration 1.0 uM
[3] = target: Mitogen-activated protein kinase kinase kinase 20 (Homo sapiens) (UniProt Q9NYL2); conditions: Compound concentration 1.0 uM
[4] = target: Peripheral plasma membrane protein CASK (Homo sapiens) (UniProt O14936); assay: CASK Invitrogen Lab (UK) kinase screen (BI); conditions: Compound concentration 1.0 uM
Rattus norvegicus = species on record: Rattus norvegicus; conditions: Compound concentration 10.0 uM
[5] = target: RAC-gamma serine/threonine-protein kinase (Homo sapiens) (UniProt Q9Y243); conditions: Compound concentration 1.0 uM
[6] = target: Muscarinic acetylcholine receptor (Rattus norvegicus) (UniProt P08482+P08483+P08485+P08911+P10980); conditions: Compound concentration 10.0 uM
[7] = target: Macrophage colony-stimulating factor 1 receptor (Homo sapiens) (UniProt P07333)
Macrophage colony-stimulating factor 1 receptor (Homo sapiens), sequence (P07333 whole entry): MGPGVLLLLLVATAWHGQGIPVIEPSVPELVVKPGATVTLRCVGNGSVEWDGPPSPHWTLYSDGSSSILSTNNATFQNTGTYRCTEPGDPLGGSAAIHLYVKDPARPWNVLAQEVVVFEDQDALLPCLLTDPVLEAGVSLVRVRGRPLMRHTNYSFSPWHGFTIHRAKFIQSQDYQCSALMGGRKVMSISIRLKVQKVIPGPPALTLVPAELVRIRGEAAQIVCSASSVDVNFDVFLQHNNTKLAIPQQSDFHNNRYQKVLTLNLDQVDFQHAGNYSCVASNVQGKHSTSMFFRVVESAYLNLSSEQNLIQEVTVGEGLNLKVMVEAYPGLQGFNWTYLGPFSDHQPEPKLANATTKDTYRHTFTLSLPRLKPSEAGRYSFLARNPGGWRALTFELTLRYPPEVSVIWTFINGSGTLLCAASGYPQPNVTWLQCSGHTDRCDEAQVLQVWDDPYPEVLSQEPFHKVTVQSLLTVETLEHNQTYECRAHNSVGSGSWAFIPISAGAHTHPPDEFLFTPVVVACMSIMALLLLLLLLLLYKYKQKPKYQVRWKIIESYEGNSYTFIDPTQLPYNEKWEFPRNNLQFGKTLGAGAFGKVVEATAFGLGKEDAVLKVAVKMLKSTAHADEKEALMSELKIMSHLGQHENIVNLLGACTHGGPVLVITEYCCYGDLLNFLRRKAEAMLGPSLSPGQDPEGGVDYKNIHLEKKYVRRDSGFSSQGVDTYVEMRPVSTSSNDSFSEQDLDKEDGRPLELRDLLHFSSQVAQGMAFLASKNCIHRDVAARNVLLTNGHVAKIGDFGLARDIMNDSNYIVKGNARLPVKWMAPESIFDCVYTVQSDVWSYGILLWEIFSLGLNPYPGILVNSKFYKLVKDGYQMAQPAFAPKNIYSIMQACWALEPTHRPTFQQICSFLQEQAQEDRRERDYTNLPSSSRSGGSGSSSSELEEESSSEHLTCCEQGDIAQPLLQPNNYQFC

[8] = target: Hormonally up-regulated neu tumor-associated kinase (Homo sapiens) (UniProt P57058); conditions: Compound concentration 1.0 uM
[9] = target: Ephrin type-A receptor 8 (Homo sapiens) (UniProt P29322); assay: EPHA8 Invitrogen Lab (UK) kinase screen (BI); conditions: Compound concentration 1.0 uM
[10] = target: Prostaglandin G/H synthase 2 (Homo sapiens) (UniProt P35354); conditions: Compound concentration 10.0 uM
[11] = target: T1, D(4) dopamine receptor (Homo sapiens) (UniProt P21917); conditions: Compound concentration 10.0 uM
T1 sequence (whole entry): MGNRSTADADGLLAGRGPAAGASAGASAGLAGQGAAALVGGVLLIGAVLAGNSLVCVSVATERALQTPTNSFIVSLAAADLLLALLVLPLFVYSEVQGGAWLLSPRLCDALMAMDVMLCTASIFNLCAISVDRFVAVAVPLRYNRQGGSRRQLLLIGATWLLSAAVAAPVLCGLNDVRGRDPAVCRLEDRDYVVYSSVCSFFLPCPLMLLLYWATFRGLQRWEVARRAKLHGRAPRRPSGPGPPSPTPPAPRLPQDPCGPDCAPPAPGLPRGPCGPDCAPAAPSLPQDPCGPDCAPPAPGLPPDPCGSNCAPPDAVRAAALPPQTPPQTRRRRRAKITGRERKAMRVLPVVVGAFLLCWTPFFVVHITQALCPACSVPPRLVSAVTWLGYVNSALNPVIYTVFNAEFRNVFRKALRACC

[12] = target: Serine/threonine-protein kinase LATS2 (Homo sapiens) (UniProt Q9NRM7); assay: LATS2 Invitrogen Lab (UK) kinase screen (BI); conditions: Compound concentration 1.0 uM
[13] = target: Muscarinic acetylcholine receptor M1 (Homo sapiens) (UniProt P11229); conditions: Compound concentration 10.0 uM
[14] = target: 3-phosphoinositide-dependent protein kinase 1 (Homo sapiens) (UniProt O15530); conditions: Compound concentration 10.0 uM
[15] = target: AP2-associated protein kinase 1 (Homo sapiens, UniProt Q2M2I8)
AP2-associated protein kinase 1, sequence (Q2M2I8 whole entry, looked up): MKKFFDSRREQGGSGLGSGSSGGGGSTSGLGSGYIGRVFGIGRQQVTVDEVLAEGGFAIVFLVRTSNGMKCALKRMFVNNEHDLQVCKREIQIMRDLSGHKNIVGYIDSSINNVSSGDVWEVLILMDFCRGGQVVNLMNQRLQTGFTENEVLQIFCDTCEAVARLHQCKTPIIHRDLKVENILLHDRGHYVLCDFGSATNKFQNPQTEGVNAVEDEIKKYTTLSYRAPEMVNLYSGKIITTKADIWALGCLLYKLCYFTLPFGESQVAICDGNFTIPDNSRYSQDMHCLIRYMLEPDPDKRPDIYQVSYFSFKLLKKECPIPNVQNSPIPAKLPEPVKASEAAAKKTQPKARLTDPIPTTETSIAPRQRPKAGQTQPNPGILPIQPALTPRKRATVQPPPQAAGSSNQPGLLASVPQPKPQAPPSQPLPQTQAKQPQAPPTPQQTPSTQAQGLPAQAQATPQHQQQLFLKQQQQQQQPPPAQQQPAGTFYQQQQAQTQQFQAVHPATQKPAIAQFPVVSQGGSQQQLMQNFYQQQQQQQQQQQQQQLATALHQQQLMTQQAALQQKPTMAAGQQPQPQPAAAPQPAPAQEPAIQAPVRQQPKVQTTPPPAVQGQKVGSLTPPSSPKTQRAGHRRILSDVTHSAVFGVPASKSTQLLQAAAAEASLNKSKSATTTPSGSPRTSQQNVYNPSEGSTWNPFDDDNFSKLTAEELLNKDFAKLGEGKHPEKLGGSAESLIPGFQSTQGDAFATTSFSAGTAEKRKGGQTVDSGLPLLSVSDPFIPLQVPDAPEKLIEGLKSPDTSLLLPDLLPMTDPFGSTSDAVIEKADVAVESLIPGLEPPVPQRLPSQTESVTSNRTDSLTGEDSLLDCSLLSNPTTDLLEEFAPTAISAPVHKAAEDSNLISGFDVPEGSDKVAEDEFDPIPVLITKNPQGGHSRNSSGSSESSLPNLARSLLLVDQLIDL

[16] = target: Alpha-1A adrenergic receptor (Homo sapiens) (UniProt P35348); conditions: Compound concentration 10.0 uM
[17] = target: SRSF protein kinase 1 (Homo sapiens) (UniProt Q96SB4); assay: SRPK1 DUNDEE kinase screen (BI); conditions: Compound concentration 10.0 uM
SRSF protein kinase 1 (Homo sapiens), sequence (Q96SB4 whole entry): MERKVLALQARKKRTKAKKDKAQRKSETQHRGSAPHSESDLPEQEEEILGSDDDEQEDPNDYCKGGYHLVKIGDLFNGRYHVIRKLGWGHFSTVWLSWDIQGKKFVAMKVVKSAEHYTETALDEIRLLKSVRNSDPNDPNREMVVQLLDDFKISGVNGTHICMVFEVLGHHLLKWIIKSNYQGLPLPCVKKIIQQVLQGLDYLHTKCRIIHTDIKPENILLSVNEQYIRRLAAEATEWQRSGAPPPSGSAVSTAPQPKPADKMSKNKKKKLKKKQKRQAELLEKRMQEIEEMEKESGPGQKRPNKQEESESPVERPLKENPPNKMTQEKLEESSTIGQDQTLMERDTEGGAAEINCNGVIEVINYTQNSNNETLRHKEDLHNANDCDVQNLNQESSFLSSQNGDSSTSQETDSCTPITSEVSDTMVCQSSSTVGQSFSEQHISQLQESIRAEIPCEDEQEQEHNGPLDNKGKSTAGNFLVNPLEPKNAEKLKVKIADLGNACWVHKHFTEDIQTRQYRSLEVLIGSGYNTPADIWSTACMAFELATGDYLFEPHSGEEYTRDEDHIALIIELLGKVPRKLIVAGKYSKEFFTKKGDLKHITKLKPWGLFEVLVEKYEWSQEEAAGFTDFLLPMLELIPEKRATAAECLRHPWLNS

[18] = target: Casein kinase II subunit alpha (Homo sapiens) (UniProt P68400)
Casein kinase II subunit alpha (Homo sapiens), sequence (P68400 whole entry, looked up): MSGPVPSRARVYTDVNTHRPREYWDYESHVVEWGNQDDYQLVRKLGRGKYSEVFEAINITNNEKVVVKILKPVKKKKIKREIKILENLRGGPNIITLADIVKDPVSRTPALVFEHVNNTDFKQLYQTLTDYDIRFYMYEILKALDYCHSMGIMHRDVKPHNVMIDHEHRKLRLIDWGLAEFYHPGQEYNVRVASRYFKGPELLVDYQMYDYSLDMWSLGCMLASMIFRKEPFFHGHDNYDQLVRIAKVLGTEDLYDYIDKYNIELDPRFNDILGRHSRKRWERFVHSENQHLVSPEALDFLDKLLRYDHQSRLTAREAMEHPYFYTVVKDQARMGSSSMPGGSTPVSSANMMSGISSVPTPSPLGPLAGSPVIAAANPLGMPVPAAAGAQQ

[19] = target: Serine/threonine-protein kinase Nek6 (Homo sapiens) (UniProt Q9HC98); conditions: Compound concentration 1.0 uM
Serine/threonine-protein kinase Nek6 (Homo sapiens), sequence (Q9HC98 whole entry): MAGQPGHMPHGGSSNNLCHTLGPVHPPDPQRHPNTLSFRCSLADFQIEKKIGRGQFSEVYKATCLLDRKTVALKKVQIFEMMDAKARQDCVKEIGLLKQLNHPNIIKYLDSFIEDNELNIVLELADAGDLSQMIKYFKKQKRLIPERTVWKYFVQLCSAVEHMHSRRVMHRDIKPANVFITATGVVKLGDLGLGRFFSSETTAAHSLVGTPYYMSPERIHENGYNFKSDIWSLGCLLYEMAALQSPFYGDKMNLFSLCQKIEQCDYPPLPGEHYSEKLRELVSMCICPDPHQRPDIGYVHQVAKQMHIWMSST

[20] = target: Leucine-rich repeat serine/threonine-protein kinase 2 (Homo sapiens) (UniProt Q5S007); assay: LRRK2_FL Invitrogen Lab (UK) kinase screen (BI); conditions: Compound concentration 1.0 uM
[21] = target: Tyrosine-protein kinase ITK/TSK (Homo sapiens) (UniProt Q08881); assay: ITK Invitrogen Lab (UK) kinase screen (BI); conditions: Compound concentration 1.0 uM
[22] = target: Carbonic anhydrase (Homo sapiens) (UniProt P00918+P43166+P00915+P07451+P23280+O43570+Q9ULX7+Q16790+P22748+Q8N1Q1+Q9Y2D0+P35218); assay: CANHYDRASE Eurofins SafetyScreen44 (BI); assay type: protein assay; conditions: Compound concentration 10.0 uM
[23] = target: Dual specificity mitogen-activated protein kinase kinase 4 (Homo sapiens) (UniProt P45985); assay: MAP2K4 Invitrogen Lab (UK) kinase screen (BI); conditions: Compound concentration 1.0 uM
[24] = target: G protein-coupled receptor kinase 5 (Homo sapiens) (UniProt P34947); conditions: Compound concentration 1.0 uM
[25] = target: SRSF protein kinase 1 (Homo sapiens) (UniProt Q96SB4); conditions: Compound concentration 1.0 uM
[26] = target: Adrenergic receptor alpha-2 (Rattus norvegicus) (UniProt P22086+P19328+P22909); assay: ALPHA2/R Eurofins SafetyScreen44 (BI); assay type: protein assay
[27] = target: Type-1 angiotensin II receptor (Homo sapiens) (UniProt P30556); assay: AT1 Eurofins SafetyScreen44 (BI)
Type-1 angiotensin II receptor (Homo sapiens), sequence (P30556 whole entry): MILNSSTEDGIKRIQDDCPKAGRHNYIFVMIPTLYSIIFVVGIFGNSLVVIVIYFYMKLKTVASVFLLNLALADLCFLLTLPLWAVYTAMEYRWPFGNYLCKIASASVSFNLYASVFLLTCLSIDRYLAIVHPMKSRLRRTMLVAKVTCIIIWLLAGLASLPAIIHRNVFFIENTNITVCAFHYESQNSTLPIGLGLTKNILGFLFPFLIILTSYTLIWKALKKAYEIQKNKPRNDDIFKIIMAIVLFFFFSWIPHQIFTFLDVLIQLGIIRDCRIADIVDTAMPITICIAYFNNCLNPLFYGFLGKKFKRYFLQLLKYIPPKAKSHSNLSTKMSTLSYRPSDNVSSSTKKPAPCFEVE

[28] = target: 5-hydroxytryptamine receptor 6 (Homo sapiens) (UniProt P50406); conditions: Compound concentration 10.0 uM
[29] = target: Non-receptor tyrosine-protein kinase TNK1 (Homo sapiens) (UniProt Q13470); conditions: Compound concentration 1.0 uM
[30] = target: Dual specificity protein kinase CLK4 (Homo sapiens) (UniProt Q9HAZ1); assay: CLK4 Invitrogen Lab (UK) kinase screen (BI); conditions: Compound concentration 1.0 uM
[31] = target: Cyclin-dependent kinase 5/CDK5 activator 1 (Homo sapiens) (UniProt Q00535+Q15078); conditions: Compound concentration 1.0 uM
[32] = target: Histamine H1 receptor (Homo sapiens) (UniProt P35367); conditions: Compound concentration 10.0 uM
[33] = target: Mitogen-activated protein kinase kinase kinase kinase 2 (Homo sapiens) (UniProt Q12851); conditions: Compound concentration 1.0 uM
[34] = target: Protein kinase C beta type (Homo sapiens) (UniProt P05771)
Protein kinase C beta type (Homo sapiens), sequence (P05771 2-671 limits assumed): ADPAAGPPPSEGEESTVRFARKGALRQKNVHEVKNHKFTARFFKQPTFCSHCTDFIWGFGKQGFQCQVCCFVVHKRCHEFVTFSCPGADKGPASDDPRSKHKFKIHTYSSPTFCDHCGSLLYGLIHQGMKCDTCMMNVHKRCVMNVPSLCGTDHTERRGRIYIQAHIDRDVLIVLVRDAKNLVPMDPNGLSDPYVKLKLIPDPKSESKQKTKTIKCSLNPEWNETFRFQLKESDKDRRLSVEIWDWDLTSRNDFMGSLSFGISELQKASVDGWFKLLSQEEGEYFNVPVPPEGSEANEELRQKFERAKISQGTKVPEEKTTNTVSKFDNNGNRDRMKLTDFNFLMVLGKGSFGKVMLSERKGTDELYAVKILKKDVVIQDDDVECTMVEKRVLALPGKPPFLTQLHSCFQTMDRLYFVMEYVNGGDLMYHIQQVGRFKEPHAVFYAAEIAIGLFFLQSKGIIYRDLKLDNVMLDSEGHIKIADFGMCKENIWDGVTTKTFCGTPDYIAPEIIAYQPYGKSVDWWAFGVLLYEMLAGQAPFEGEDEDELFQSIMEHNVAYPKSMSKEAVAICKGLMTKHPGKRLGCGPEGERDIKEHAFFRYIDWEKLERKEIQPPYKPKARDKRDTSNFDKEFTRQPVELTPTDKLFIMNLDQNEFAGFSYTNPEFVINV

[35] = target: Polyunsaturated fatty acid lipoxygenase ALOX12 (Homo sapiens) (UniProt P18054); conditions: Compound concentration 10.0 uM
Polyunsaturated fatty acid lipoxygenase ALOX12 (Homo sapiens), sequence (P18054 whole entry): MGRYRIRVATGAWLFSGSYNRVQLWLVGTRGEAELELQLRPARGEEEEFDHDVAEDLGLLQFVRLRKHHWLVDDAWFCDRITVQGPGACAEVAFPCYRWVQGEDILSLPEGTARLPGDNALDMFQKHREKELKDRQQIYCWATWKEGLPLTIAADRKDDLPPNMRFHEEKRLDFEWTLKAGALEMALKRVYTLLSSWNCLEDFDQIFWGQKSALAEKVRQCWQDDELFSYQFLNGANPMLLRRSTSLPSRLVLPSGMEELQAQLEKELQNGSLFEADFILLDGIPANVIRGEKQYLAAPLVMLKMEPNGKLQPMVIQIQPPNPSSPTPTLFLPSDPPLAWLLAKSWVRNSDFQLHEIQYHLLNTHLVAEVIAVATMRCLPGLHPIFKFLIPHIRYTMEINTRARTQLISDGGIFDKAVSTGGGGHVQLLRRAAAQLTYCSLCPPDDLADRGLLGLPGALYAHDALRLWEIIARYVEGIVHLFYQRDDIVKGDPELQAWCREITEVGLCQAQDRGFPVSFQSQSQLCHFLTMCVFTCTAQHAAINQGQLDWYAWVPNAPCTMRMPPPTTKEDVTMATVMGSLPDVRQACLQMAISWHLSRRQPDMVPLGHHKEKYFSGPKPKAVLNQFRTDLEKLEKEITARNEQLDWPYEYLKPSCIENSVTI

[36] = Compound concentration 100.0 uM

CCC(F)(F)c1cc(N2CCC(S(C)(=O)=O)CC2)nc2sc(C(N)=O)c(N)c12 [BI-605906]
residual activity [1]: 100%
residual activity [2]: 86%
residual activity [3]: 97%
residual activity [4]: 52%
residual activity (Rattus norvegicus): 97%
residual activity [5]: 91%
residual activity [6]: 99%
residual activity ([7]; Compound concentration 1.0 uM): 58%
residual activity ([7]; Compound concentration 10.0 uM): 14%
residual activity [8]: 97%
residual activity [9]: 85%
residual activity [10]: 82%
residual activity [11]: 95%
residual activity [12]: 88%
inhibition [13]: 8.33%
residual activity [14]: 89.1%
residual activity ([15]; Compound concentration 0.001 uM): 101%
residual activity ([15]; Compound concentration 1.0 uM): 13%
residual activity ([15]; Compound concentration 20.0 uM): 4%
inhibition [16]: 18.9%
residual activity [17]: 73.3%
residual activity ([18]; Compound concentration 1.0 uM): 92%
residual activity ([18]; Compound concentration 10.0 uM): 107%
residual activity [19]: 95%
residual activity [20]: 62%
residual activity [21]: 107%
residual activity [22]: 86%
residual activity [23]: 79%
residual activity [24]: 96%
residual activity [25]: 99%
residual activity ([26]; Compound concentration 10.0 uM): 103%
residual activity [26, 36]: 102%
residual activity ([27]; Compound concentration 10.0 uM): 104%
residual activity [27, 36]: 72%
inhibition [28]: 8.77%
residual activity [29]: 92%
residual activity [30]: 69%
residual activity [31]: 97%
residual activity [32]: 95%
residual activity [33]: 99%
residual activity ([34]; Compound concentration 1.0 uM): 89%
residual activity ([34]; Compound concentration 10.0 uM): 102%
residual activity [35]: 96%
